{"source": "ChEMBL document CHEMBL1201862", "about": "“PubChem BioAssay data set” (2004)", "key": {"[1]": {"biological_target": "T1, RNA-binding protein pos-1 (Caenorhabditis elegans, UniProt G5EF15)", "T1 sequence (G5EF15 whole entry)": "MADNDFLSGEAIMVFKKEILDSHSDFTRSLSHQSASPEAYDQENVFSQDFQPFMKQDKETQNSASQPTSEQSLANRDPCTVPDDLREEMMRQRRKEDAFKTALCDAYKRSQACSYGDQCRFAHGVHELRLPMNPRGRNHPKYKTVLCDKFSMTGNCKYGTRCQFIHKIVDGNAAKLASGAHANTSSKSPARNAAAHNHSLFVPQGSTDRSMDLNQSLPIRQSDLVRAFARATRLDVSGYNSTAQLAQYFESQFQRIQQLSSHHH", "test": "inhibitors of POS-1/mex-3 RNA binding, dose response, biochemical, fluorescence polarization (AID 1964);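 note: purified POS-1 fused to maltose binding protein made in E. coli; potency of compounds blocking POS-1 binding to fluorescent RNA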"}, "[2]": {"biological_target": "T2, Zinc finger protein mex-5 (Caenorhabditis elegans, UniProt Q9XUB2)", "T2 sequence (Q9XUB2 whole entry)": "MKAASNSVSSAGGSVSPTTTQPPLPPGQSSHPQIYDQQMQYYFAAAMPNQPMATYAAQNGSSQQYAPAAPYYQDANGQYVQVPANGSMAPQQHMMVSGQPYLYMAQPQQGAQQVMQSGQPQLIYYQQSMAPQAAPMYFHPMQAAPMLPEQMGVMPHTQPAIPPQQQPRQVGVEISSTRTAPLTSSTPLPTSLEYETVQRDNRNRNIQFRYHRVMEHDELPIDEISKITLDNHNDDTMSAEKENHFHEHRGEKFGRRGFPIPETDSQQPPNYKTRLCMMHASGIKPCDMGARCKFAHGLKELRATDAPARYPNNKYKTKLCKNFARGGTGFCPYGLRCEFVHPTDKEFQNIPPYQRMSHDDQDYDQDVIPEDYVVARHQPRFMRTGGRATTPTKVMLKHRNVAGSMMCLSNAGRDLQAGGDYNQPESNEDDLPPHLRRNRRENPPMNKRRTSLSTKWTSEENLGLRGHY", "test": "MEX-5/TCR-2 RNA interaction inhibitors, dose response, biochemical, C. elegans, fluorescence polarization (AID 1960)"}, "[3]": {"test": "inhibitors of Vif binding to APOBEC3G peptide, primary screen, biochemical, TR-FRET, GST-Vif 1-94, biotin-A3G peptide, dose response retest (AID 1117319);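 note: inhibitors lower the FRET signal by blocking Vif and A3G binding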", "type": "functional"}, "[4]": {"biological_target": "Voltage-dependent T-type calcium channel subunit alpha-1H (Homo sapiens, UniProt O95180)", "sequence (O95180 whole entry)": "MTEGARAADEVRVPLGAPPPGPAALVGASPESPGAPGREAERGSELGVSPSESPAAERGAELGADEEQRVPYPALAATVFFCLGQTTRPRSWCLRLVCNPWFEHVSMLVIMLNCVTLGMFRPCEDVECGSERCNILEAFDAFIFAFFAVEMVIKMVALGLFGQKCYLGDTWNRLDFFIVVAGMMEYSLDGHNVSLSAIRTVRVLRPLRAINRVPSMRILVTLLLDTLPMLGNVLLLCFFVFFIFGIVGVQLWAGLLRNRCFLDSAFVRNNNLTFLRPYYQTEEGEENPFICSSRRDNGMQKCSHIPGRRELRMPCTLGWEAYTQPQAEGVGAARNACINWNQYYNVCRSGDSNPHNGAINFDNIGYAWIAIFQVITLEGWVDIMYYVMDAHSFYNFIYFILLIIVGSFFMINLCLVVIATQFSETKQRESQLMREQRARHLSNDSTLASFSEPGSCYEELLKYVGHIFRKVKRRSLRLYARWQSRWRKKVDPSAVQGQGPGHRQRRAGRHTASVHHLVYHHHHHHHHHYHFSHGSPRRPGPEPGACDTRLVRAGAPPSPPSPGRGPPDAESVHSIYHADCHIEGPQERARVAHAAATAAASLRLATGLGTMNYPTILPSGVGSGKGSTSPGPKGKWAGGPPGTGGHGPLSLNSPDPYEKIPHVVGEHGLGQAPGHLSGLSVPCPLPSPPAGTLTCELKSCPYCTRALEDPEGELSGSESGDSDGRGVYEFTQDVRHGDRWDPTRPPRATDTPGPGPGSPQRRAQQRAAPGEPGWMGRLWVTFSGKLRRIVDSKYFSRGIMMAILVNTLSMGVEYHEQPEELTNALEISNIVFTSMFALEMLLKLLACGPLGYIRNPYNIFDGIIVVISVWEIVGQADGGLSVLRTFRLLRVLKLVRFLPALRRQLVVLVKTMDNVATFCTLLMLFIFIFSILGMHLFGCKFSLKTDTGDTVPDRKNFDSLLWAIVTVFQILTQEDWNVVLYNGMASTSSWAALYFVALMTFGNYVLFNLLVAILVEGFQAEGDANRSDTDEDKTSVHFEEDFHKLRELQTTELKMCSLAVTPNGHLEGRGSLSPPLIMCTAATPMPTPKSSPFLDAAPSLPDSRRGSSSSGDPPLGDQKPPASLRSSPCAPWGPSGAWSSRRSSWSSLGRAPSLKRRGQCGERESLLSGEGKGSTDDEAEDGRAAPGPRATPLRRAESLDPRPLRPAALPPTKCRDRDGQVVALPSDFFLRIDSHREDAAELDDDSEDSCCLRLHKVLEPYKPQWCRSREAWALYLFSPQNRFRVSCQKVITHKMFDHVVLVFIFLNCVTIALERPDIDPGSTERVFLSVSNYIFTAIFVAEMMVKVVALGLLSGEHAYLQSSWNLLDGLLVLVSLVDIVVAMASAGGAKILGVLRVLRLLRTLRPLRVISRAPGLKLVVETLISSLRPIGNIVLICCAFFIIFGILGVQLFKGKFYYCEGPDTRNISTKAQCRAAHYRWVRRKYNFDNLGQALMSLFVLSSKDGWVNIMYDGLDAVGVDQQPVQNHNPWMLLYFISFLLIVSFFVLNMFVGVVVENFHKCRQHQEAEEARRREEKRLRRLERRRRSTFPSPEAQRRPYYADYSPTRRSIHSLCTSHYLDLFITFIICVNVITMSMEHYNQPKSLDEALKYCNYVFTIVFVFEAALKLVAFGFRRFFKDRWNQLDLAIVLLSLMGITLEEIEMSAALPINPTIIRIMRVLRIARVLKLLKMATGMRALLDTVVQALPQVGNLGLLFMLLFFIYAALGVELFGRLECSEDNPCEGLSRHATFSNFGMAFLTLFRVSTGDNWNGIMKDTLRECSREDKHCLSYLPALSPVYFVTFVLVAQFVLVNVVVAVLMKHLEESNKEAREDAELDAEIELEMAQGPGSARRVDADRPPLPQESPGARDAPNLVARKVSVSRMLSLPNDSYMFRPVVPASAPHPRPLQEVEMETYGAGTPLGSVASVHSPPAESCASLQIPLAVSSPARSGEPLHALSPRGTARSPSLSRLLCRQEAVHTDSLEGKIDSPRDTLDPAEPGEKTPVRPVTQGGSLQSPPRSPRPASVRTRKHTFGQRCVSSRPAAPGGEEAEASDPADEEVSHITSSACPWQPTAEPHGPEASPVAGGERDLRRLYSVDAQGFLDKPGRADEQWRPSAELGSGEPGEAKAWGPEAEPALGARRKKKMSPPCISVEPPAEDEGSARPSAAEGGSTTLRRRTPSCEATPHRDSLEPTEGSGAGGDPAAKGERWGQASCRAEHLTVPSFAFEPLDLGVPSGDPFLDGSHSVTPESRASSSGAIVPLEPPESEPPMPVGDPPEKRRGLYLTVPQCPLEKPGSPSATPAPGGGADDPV", "type": "functional"}, "[5]": {"test": "THP-1 cell cytotoxicity, dose response, cytotoxicity control for non-replicating M. tuberculosis project (AID 489025)", "type": "functional"}, "[6]": {"test": "Vero E6 cell cytotoxicity, dose response, cytotoxicity control for non-replicating M. tuberculosis project, secondary assay (AID 492998)", "type": "functional, VeroE6", "details": "Vero C1008"}, "cells [7]": {"test": "cells", "type": "functional"}, "Vero": {"test_system": "Vero", "test": "cells", "type": "functional", "details": "Chlorocebus sabaeus"}, "[8]": {"biological_target": "T3, Polyadenylate-binding protein 1 (Homo sapiens, UniProt P11940)", "T3 sequence (P11940 whole entry)": "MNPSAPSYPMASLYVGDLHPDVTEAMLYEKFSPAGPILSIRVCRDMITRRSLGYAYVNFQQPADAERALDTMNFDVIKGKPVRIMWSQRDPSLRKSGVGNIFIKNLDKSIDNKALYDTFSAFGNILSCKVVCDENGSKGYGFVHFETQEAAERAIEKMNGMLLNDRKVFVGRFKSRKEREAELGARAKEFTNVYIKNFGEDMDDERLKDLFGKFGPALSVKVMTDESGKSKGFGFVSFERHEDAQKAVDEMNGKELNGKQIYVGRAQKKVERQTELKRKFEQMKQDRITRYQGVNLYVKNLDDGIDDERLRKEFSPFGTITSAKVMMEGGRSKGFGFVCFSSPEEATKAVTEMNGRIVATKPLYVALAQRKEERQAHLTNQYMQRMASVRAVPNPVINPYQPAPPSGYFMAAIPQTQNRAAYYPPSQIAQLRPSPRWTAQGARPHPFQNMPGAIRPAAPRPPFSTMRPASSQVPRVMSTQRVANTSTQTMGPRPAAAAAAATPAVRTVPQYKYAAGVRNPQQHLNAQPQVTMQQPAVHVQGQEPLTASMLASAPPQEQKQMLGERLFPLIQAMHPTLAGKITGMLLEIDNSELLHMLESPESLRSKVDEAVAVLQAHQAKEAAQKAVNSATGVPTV", "test": "PABP1 MLLE–PAM2 interaction inhibitors, dose response, miRNA deadenylation inhibitor project, biochemical, fluorescence polarization, Cy5-PAM2 peptide, secondary (AID 602260)", "type": "functional", "details": "read-out: IC50_Mean"}, "[9]": {"biological_target": "T3, Polyadenylate-binding protein 1", "test": "PABP1 MLLE–PAM2 binding inhibitor potency, dose response, biochemical, fluorescence polarization, FITC-PAM2 peptide (AID 602259)", "type": "functional", "details": "read-out: IC50_Mean"}, "[10]": {"biological_target": "T4, Short transient receptor potential channel 4 (Mus musculus, UniProt Q9QUQ5)", "T4 sequence (Q9QUQ5 whole entry)": "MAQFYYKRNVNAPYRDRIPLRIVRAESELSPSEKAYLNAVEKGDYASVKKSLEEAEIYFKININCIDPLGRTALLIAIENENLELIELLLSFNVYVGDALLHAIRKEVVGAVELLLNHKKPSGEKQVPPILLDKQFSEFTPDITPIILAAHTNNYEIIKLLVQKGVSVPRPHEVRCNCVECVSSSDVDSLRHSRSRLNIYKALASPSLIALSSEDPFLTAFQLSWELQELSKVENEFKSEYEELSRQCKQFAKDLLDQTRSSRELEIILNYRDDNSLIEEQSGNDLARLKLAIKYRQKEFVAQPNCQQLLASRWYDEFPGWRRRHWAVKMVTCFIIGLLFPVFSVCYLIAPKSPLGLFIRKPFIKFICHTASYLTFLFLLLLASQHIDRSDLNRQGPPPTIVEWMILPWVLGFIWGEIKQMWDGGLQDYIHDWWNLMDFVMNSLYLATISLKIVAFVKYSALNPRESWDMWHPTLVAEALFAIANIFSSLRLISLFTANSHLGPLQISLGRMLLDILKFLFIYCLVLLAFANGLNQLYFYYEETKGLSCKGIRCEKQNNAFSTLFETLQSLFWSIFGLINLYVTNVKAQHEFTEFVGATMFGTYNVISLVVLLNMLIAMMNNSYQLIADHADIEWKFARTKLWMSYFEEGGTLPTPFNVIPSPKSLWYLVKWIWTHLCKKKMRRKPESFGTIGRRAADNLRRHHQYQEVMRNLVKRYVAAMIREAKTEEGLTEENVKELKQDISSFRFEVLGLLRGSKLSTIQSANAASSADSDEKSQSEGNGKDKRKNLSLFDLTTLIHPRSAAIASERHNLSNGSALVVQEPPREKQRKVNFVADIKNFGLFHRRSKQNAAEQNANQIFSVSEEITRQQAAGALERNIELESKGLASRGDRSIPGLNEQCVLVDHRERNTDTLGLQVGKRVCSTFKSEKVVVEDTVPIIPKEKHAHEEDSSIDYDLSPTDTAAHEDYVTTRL", "test": "mouse TRPC4 channel activators, dose response, cell-based, HEK293 TRPC4/mu-opioid, Fluo-4 calcium (AID 434937)", "type": "functional"}, "[11]": {"biological_target": "T5, Heat shock factor protein 1 (Mus musculus, UniProt P38532)", "T5 sequence (P38532 whole entry)": "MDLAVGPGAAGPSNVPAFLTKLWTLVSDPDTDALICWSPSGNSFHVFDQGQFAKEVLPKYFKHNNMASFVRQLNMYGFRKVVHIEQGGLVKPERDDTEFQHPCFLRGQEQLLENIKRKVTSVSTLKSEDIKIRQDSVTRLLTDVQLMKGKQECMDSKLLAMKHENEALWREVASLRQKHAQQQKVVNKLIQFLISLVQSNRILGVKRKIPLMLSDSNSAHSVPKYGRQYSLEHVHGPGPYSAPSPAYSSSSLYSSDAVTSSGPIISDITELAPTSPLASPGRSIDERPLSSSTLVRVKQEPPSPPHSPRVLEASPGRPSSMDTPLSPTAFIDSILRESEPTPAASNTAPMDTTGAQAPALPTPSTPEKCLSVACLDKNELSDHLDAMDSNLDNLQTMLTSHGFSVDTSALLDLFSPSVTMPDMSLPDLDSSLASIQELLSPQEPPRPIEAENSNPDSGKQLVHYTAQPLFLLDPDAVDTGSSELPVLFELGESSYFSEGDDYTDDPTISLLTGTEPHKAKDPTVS", "test": "inhibition of MG132-induced HSE-luciferase signal, confirmation, cell-based, NIH3T3, luminescence, dose retest (AID 2382);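 note: NIH3T3 fibroblasts with HSF1-driven luciferase reporter stressed by proteasome inhibitor MG132; luminescence from HSF1-driven luciferase expression after 8 hours of MG132 stress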", "type": "functional"}, "Estrogen receptor beta [12]": {"biological_target": "T6, Estrogen receptor beta (Homo sapiens, UniProt Q92731)", "T6 sequence (Q92731 whole entry)": "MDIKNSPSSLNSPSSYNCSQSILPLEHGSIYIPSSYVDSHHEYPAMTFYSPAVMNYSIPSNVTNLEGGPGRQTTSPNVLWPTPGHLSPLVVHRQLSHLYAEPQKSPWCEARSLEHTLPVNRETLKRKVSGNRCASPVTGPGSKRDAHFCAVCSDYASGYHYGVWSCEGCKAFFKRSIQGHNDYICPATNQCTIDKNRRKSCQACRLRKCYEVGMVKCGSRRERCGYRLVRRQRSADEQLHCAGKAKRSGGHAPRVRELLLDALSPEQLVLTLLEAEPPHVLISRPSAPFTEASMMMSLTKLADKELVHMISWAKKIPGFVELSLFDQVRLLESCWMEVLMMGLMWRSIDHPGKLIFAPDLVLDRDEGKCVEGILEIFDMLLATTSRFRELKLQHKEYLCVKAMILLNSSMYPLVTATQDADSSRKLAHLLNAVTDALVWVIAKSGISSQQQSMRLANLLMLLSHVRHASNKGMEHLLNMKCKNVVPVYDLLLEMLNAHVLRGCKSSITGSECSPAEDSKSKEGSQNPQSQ"}, "Estrogen receptor beta [13]": {"biological_target": "T6, Estrogen receptor beta", "test": "ERβ–SRC-3 coactivator interaction inhibitors, confirmation, orthogonal assay, biochemical, ELISA, streptavidin-HRP readout (AID 1060)"}, "cells [14]": {"test": "cells", "type": "functional, cell-based"}, "cells [15]": {"test": "cells", "type": "functional, cell-based", "remark": "listed apart in the source"}, "[16]": {"biological_target": "T7, Calpain-2 catalytic subunit (Sus scrofa, UniProt P43367)", "T7 sequence (P43367 whole entry)": "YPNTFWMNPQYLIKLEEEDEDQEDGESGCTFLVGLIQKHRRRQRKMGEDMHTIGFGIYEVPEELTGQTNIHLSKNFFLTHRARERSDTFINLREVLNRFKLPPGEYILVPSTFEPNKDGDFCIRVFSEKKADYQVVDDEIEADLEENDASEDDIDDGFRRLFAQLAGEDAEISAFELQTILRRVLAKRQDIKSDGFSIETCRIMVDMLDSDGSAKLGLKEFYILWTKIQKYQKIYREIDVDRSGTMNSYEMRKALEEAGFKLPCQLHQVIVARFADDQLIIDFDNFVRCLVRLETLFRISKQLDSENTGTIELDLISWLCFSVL", "test": "pig calpain II inhibitor potency, dose response, biochemical, fluorogenic peptide substrate (AID 1420)", "type": "functional"}, "[17]": {"test": "HepG2 cell cytotoxicity, dose response, cytotoxicity control for non-replicating M. tuberculosis project (AID 489018)", "type": "functional", "details": "Mycobacterium tuberculosis"}, "INS1": {"test_system": "INS1", "test": "beta cell apoptosis inhibitors, cytokine rescue, dose response, luminescence, retest (AID 449756);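 note: cell death triggered by IL-1 beta plus TNF-alpha plus IFN-gamma mixture; protective hits raise ATP signal compared with cytokine alone wells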", "type": "functional, cell-based", "details": "Rattus norvegicus"}}, "note": "The source made the active and inactive calls.", "data": [{"smiles": "CCOC(=O)C1Nc2ccc(Br)cc2C2C=CCC12", "note": "(stereo not drawn)", "values": [{"measurement": "EC50", "setting": "[1]", "result": "> 300 µM (not active)"}, {"measurement": "EC50", "setting": "[2]", "result": "46 µM (active)"}, {"measurement": "IC50", "setting": "[3]", "result": "> 100 µM (active)"}]}, {"smiles": "CCC(=O)N1CCN(c2ccc(Cl)cc2NC(=O)Cc2ccccc2)CC1", "values": [{"measurement": "EC50", "setting": "[4]", "result": "10.1 µM (active)"}]}, {"smiles": "CCN1CSC(=S)N(Cc2ccc(OC)cc2)C1", "values": [{"measurement": "CC50", "setting": "[5]", "result": "9.8 µM (active)"}, {"measurement": "CC50", "setting": "[6]", "result": "6.33 µM (active)"}, {"measurement": "IC50", "setting": "cells [7]", "result": "11.8 µM (active)"}, {"measurement": "CC50", "setting": "Vero", "result": "12.1 µM (active)"}, {"measurement": "IC50", "setting": "[8]", "result": "> 66 µM (inactive)"}, {"measurement": "IC50", "setting": "[9]", "result": "> 66 µM (inactive)"}]}, {"smiles": "Cc1ccc(OCC(=O)N(C)CCc2ccccn2)cc1", "values": [{"measurement": "EC50", "setting": "[10]", "result": "6.68 µM (active)"}]}, {"smiles": "CCN1C(=O)CS/C1=C(\\C#N)S(=O)(=O)c1ccccc1", "values": [{"measurement": "IC50", "setting": "[3]", "result": "> 100 µM (active)"}]}, {"smiles": "Cc1cc2ncn(CCCCOc3ccccc3)c2cc1C", "values": [{"measurement": "EC50", "setting": "[4]", "result": "7.27 µM (active)"}]}, {"smiles": "CC(C)(C)c1ccccc1NC(=O)NC1CCN(Cc2c(F)cccc2Cl)CC1", "values": [{"measurement": "EC50", "setting": "[11]", "result": "> 195 µM (not active)"}, {"measurement": "EC50", "setting": "[10]", "result": "2.11 µM (active)"}]}, {"smiles": "CCc1c(C)sc(NC(=O)c2cc(-c3ccco3)on2)c1C#N", "values": [{"measurement": "IC50", "setting": "[3]", "result": "> 100 µM (active)"}]}, {"smiles": "CCCCN(CCCC)S(=O)(=O)c1ccc(C(=O)Nc2nnc(CSC)o2)cc1", "values": [{"measurement": "EC50", "setting": "[4]", "result": "2.82 µM (active)"}]}, {"smiles": "Cc1noc(C)c1CCC(=O)NC1CCCN(Cc2ccc(CC(C)C)cc2)C1", "note": "(stereo not drawn)", "values": [{"measurement": "EC50", "setting": "[10]", "result": "3.76 µM (active)"}]}, {"smiles": "CCOC(=O)CSc1nnc(-c2ccccc2NC(=O)c2ccccc2)o1", "values": [{"measurement": "IC50", "setting": "[3]", "result": "> 100 µM (active)"}]}, {"smiles": "CC(=O)Nc1c(O)nc(SCC(=O)Nc2ccc(C(C)=O)cc2)nc1O", "values": [{"measurement": "IC50", "setting": "[3]", "result": "> 100 µM (active)"}]}, {"smiles": "Cc1nn(Cc2ccc(Cl)c(Cl)c2)c(C)c1NC(=O)c1cc(CC(C)C)on1", "values": [{"measurement": "EC50", "setting": "[4]", "result": "1.28 µM (active)"}]}, {"smiles": "CCOC(=O)Cc1csc(NC(=O)Cc2cccs2)n1", "values": [{"measurement": "IC50", "setting": "Estrogen receptor beta [12]", "result": "5.81 µM (active)"}, {"measurement": "IC50", "setting": "Estrogen receptor beta [13]", "result": "3.22 µM (not active)"}]}, {"smiles": "CN(C)C(CNC(=O)CCS(=O)(=O)c1ccccc1)c1ccccc1", "note": "(stereo not drawn)", "values": [{"measurement": "EC50", "setting": "[10]", "result": "0.376 µM (active)"}]}, {"smiles": "COc1ccc(C(=O)N/N=C(\\c2ccccc2)c2ccccn2)cc1", "values": [{"measurement": "EC50", "setting": "cells [14]", "result": "10.3 µM (active)"}, {"measurement": "EC50", "setting": "cells [15]", "result": "38.6 µM (active)"}, {"measurement": "IC50", "setting": "[16]", "result": "> 50 µM (not active)"}, {"measurement": "CC50", "setting": "[5]", "result": "0.517 µM (active)"}, {"measurement": "CC50", "setting": "[17]", "result": "9.02 µM (active)"}, {"measurement": "CC50", "setting": "[6]", "result": "2.39 µM (active)"}, {"measurement": "IC50", "setting": "cells [7]", "result": "8.09 µM (active)"}, {"measurement": "AC50", "setting": "INS1", "result": "1.18 µM (active)"}, {"measurement": "CC50", "setting": "Vero", "result": "3.02 µM (active)"}]}]}
